# US5015661A, “Chromanes and their pharmaceutical compositions and methods” (Hoffmann-La Roche Inc., priority 1989, dated 1991)
# Target: T1, Δ^5 -lipoxygenase from rat basophilic leukemia (RBL-1) cells (Rattus norvegicus, UniProt P12527)
# T1 construct: endogenous in cells; host or cells: RBL-1 rat basophilic leukemia cells (ATCC CRL 1378); 113,000×g supernatant (cytosolic fraction)
# T1 sequence (P12527 1-673): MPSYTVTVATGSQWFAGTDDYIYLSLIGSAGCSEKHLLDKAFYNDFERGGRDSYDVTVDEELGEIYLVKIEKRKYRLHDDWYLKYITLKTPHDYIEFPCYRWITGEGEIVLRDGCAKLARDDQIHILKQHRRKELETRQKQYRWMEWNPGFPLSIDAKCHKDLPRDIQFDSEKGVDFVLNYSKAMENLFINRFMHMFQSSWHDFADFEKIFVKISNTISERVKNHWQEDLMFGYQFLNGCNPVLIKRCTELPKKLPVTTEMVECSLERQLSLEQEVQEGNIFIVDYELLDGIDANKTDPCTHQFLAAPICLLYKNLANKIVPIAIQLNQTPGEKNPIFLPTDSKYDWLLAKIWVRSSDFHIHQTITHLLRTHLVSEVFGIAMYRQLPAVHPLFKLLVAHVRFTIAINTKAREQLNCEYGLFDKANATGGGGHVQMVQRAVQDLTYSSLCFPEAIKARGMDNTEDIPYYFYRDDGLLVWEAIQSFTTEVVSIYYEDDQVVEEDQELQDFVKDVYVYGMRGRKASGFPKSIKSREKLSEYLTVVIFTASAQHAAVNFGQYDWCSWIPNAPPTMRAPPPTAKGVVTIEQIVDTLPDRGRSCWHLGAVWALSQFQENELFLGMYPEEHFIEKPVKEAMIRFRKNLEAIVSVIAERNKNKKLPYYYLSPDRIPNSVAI
# Assay: In vitro test for Δ^5 -lipoxygenase inhibitors (5-LO), RBL-1 cell enzyme, 5-HETE radioimmunoassay
# Assay type: biochemical
# Conditions: RBL-1 5-LO; 10 min preincubation; 8.25 μM arachidonic acid, 10 min at 37° C.; 5-HETE formation; read-out: 5-LO IC-50
# Protocol: IN VITRO TEST FOR Δ^5 -LIPOXYGENASE INHIBITORS Compounds of formula I of the invention were tested for their effect on Δ^5 -lipoxygenase from rat basophilic leukemia (RBL-1) cells. Materials. RBL-1 cells (CRL 1378) were obtained from the American TYpe Culture Collection, Rockville, MD. DMEM and glutamine were purchased from Flow Labs, McLean, VA. FBS (Gibco, Grand Island, NY) was heat-inactivated for 1 hour at 56° C. Reagents for protein determinations were obtained from Biorad, Rockville Center, NY. Arachidonic acid (approx. 99%), ATP (disodium slat), BHT, dextran (clinical grade), tetrasodium EDTA, gelatin, gentamycin sulfate solution, reduced glutathione, 1 M HEPES buffer, indomethacin, NaCl, reduced NADpH, Trizma 7.2, and Trizma 8.5 were purchased from Sigma Chemical, St. Louis, MO. CaCl2 dihydrate, Norit A charcoal, and citric acid monohydrate were obtained from Fisher Scientific, Pittsburgh, PA. […] MA. A synthetic 5-HETE standard was supplied by Dr. M. Rosenberger, Dept. of Medicinal Chemistry, Hoffmann-La Roche, Nutley, NJ; [see Corey, E.J., and Hashimoto, S. (1981 ) Tet. Letters, 22, 299-302 for method of preparation]. Ecoscint liquid sointillation fluid was purchased from National Diagnostics, Sommerville, NJ. Isolation of 5-lipoxygenase. […] Approximately 7-9 days after thawing, RBL-1 cells growing in log phase were seeded at a density of 7500 viable cells/ml in a closed 89-liter spinner flask. The cells were stirred constantly for 3-4 days at 37° C. until they reached a density greater than 500,000/ml but less than 800,00/ml. RBL-1 cells were harvested by centrifugation at 4° C. at 1500×g for 10 minutes and were washed 3 times with ice cold 0.05 M tris-HCl, pH 7.2, tetrasodium EDTA (buffer 1). The cells were washed last in 0.05 M Tris-HCl containing 14 μM indomethacin, 1 mM glutathione, 1.5 mM NaCl, and 1 mM tetrasodium EDTA (buffer 2), resuspended at a density of 5×108'/ml (approximately 10 ml) and disrupted manually at 4° C. using a 40 ml Dounce (type A pestle) homogenizer. After 5 minutes of homogenization. 95% cell lysis was confirmed by phase contrast microscopy. The broken cells were diluted 1:2 with buffer 2 and centrifuged at 12,380×g for 10 minutes at 4° C. to pellet cellular debris and granules. The 12,380×g supernatant was centrifuged at 113,000×g for 60 minutes to pellet microsomes. The high-speed supernatant (5.9±0.48 mg/ml protein) was frozen immediately in 1 ml aliquots using a dry ice/acetone bath. The isolated cytosolic fraction was stored in liquid N2 for up to 8 weeks without loss of 5-LO enzyme activity. Lipoxygenase Assay. Compounds Were dissolved at 25 mM concentration in DMSO, then diluted to final concentrations using 95% ethanol. For a typical enzyme assay, the partially purified 5-LO preparation was preincubated with drug or vehicle for 10 minutes at 30° C. The assay tubes were then transferred at a 37° C. water bath where they received arachidonic acid (8.25 μM final concentration) to initiate 5-LO activity. In addition to enzyme and substrate, each reaction tube contained: 12.5 μmoles of Tris-HCl (pH 7.2), 25 nmoles glutathione, 0.35 nmoles indomethacin and 1.25 μmoles of CaCl2 and ATP to yield a total of volume of 250 μl. The enzyme reaction was terminated after 10 minutes by the addition of 75μl […] citric acid to yield pH 3.5. The samples were immediately cooled on ice and neutralized by dilution with 0.05 M Tris-HCl, pH 8.5, which contained 25 mg/1 BHT. A boiled cytosol control was placed at the end of each assay to measure non-enzymatic oxidation of arachidonic acid. The mean specific activity of the 5-LO enzyme preparation was approximately 66.16±14.39 pmol 5-HETE/min/mg protein. Radioimmunoassay for 5-HETE. Under the assay conditions described, the 5-LO catalyzed the conversion of arachidonic acid to 5-HPETE which, as a consequence o peroxidase activity, was reduced to 5-HETE. A specific radioimmunoassay was employed to quantitate the amount (pmoles) of 5-HETE formed during the enzyme reaction. […]
row,SMILES,IC50 [nM]
1,"Cc1c(C)c2c(c(C)c1O)CCC(C)(C#Cc1ccccc1)O2 (racemic) [Example 1, rac-3,4-Dihydro-2,5,7,8-tetramethyl-2-(phenylethynyl)-2H-1-benzopyran-6-ol]",40
2,"Cc1c(C)c2c(c(C)c1O)CCC(C)(C#Cc1cccs1)O2 (racemic) [Example 4, rac-3,4-Dihydro-2,5,7,8-tetramethyl-2-[(2-thienyl)ethynyl]-2H-1-benzopyran-6-ol]",23
3,"Cc1c(C)c2c(c(C)c1O)CCC(C)(C#Cc1cccnc1)O2 (racemic) [Example 14, rac-3,4-Dihydro-2,5,7,8-tetramethyl-2-[(3-pyridinyl)ethynyl]-2H-1-benzopyran-6-ol]",40
4,"Cc1c(C)c2c(c(C)c1O)CCC(C)(C#Cc1ccccn1)O2 (racemic) [Example 15, rac-3,4-Dihydro-2,5,7,8-tetramethyl1-2-[(2-pyridinyl)ethynyl]-2H-1-benzopyran-6-ol]",16
5,"Cc1c(C)c2c(c(C)c1O)CCC(C)(C#Cc1csc3ccccc13)O2 (racemic) [Example 16, rac-[2-(Benzo[b]thiophen-3-yl)ethynyl]-3.4-dihydro-2,5,7,8-tetramethyl-2H-1-benzopyran-2H-1-benzopyran-6-ol]",1.6
6,"COc1ccc(C#CC2(C)CCc3c(C)c(O)c(C)c(C)c3O2)cc1OC(C)=O (racemic) [Example 20, rac-2-[(3-Acetyloxy-4-methoxyphenyl)ethynyl]-3.4-dihydro-2,5,7,8-tetramethyl-2H-1-benzopyran-6-ol]",24
7,"COc1cccc(C#CC2(C)CCc3c(C)c(O)c(C)c(C)c3O2)c1 (racemic) [Example 22, rac-3,4-Dihydro-2-(3-methoxyphenyl)ethynyl)-2,5,7,8-tetra-methyl-2H-1-benzopyran-6-ol]",170
8,"COC(=O)c1cc(C#CC2(C)CCc3c(C)c(O)c(C)c(C)c3O2)ccc1O (racemic) [Example 23, rac-5-(3,4-Dihydro-6-hydroxy-2,5,7,8-tetramethyl-2H-1-benzopyran-2-yl)ethynyl]-2-hydroxybenzoic acid methyl ester]",160
9,"Cc1c(C)c2c(c(C)c1O)CCC(C)(C#Cc1ccc(-c3cccnc3)cc1)O2 (racemic) [Example 24, rac-3,4-Dihydro-2,5,7,8-tetramethyl-2-{[4-(3-pyridinyl)-phenyl]ethynyl}-2H-1-benzopyran-6-ol]",160
10,"Cc1c(C)c2c(c(C)c1O)CCC(C)(C#Cc1ccc(-c3ccccn3)s1)O2 (racemic) [Example 26, rac-3,4-Dihydro-2,5,7,8-tetramethyl-2-{[5-(2-pyridinyl)-2-thienyl]ethynyl}-2H-1-benzopyran-6-ol]",160
11,"COc1cc(C=O)cc(C#CC2(C)CCc3c(C)c(O)c(C)c(C)c3O2)c1O (racemic) [Example 28, rac-3-[(3,4-Dihydro-6-hydroxy-2,5,7,8-tetramethyl-2H-1-benzopyran-2-yl)ethynyl]-4-hydroxy-5-methoxybenzaldehyde]",130
12,"COc1cc(CO)cc(C#CC2(C)CCc3c(C)c(O)c(C)c(C)c3O2)c1O (racemic) [Example 29, rac-3-[(3,4-Dihydro-6-hydroxy-2,5,7,8-tetramethyl-2H-1-benzopyran-2-yl)ethynyl]-4-hydroxy-5-methoxybenzenemethanol]",130

# Further lines, results first:
row,IC50 [nM],SMILES
1,160,"COc1cc(C=NO)cc(C#CC2(C)CCc3c(C)c(O)c(C)c(C)c3O2)c1O (racemic) [Example 30, rac-3-[(3,4-Dihydro-6-hydroxy-2,5,7,8-tetramethyl-2H-1-benzopyran-2yl)ethynyl]-4-hydroxy-5-methoxybenzaldehydeoxime]"
2,1000,"CCCCc1ccc(C#CC2(C)CCc3c(C)c(O)c(C)c(C)c3O2)s1 (racemic) [Example 31, rac-2-[(5-Butyl-2-thienyl)ethynyl]-3,4-dihydro-2,5,7,8-tetramethyl-2H-1-benzopyran-6-ol]"
3,160,"Cc1c(C)c2c(c(C)c1O)CCC(C)(C#Cc1cnc3ccccc3c1)O2 (racemic) [Example 33, rac-3,4-Dihydro-2,5,7,8-tetramethyl-2-(3-quinolinylethynyl)-2H-1-benzopyran-6-ol]"
4,1000,"Cc1c(C)c2c(c(C)c1O)CCC(C)(C#Cc1cncc3ccccc13)O2 (racemic) [Example 34, rac-3,4-Dihydro-2-[(4-isoquinolinyl)ethynyl]-2,5,7,8-tetramethyl-2H-1-benzopyran-6-ol]"
5,190,"Cc1c(C)c2c(c(C)c1O)CCC(C)(C#Cc1cccc(C(F)(F)F)c1)O2 (racemic) [Example 35, rac-2-{[3-(Trifluoromethyl)phenyl]ethynyl-3,4-dihydro-2,5,7,8-tetramethyl-2H-1-benzopyran-6-ol]"
6,120,"Cc1c(C)c2c(c(C)c1O)CCC(C)(C#Cc1ccc(F)c(F)c1)O2 (racemic) [Example 36, rac-2-[(3,4-Difluorophenyl)ethynyl]-3,4-dihydro-2,5,7,8-tetramethyl-2H-1-benzopyran-6-ol]"
7,500,"Cc1c(C)c2c(c(C)c1O)CCC(C)(C#Cc1cccc3ccccc13)O2 (racemic) [Example 39, rac-3,4-Dihydro-2,5,7,8-tetramethyl-2-(1-naphthyl)ethynyl-2H-1-benzopyran-6-ol]"
8,20,"Cc1c(C)c2c(c(C)c1O)CCC(C)(C#Cc1ccccc1N)O2 (racemic) [Example 40, rac-2-[(2-Aminophenyl)ethynyl]-3,4-dihydro-2,5,7,8-tetramethyl-2H-1-benzopyran-6-ol]"
9,32,"CC(=O)Oc1cc(C#CC2(C)CCc3c(C)c(O)c(C)c(C)c3O2)ccc1OCc1ccccc1 (racemic) [Example 41, rac-2-{[3-Acetyloxy-4-(phenylmethoxy)phenyl]ethynyl}-3,4-dihydro-2,5,7,8-tetramethyl-2H-1-benzopyran-6-ol]"
10,24,"Cc1c(C)c2c(c(C)c1O)CCC(C)(C#Cc1ccc(OCc3ccccc3)c(O)c1)O2 (racemic) [Example 43, rac-3,4-Dihydro-2-{[3-hydroxy-4-(phenylmethoxY)phenyl]-ethynyl}-2,5,7,8-tetramethyl-2H-1-benzopyran-6-ol]"
